Measurements from PMC11596062, “Substrate Specificity of ABCB Transporters Predicted by Docking Simulations Can Be Confirmed by Experimental Tests” (Molecules, 2024).

How the values were obtained:
OfABCB2 = system: T1, OfABCB2; experiment: vanadate-sensitive ATPase assay, phosphate release, Sf9 membranes; assay type: biochemical, Oncopeltus fasciatus; conditions: substrate-stimulated ATPase; difference without / with 500 µM vanadate; 0-800 µM in 2% DMSO; 37 °C; read-out: Km Values [μM] ± SE / OfABCB2
T1 construct: full-length cds (3984 bp, 1327 aa), baculovirus pFBD in Sf9 cells, isolated cell membranes; no tag mentioned
Text: vanadate-sensitive ATPase assay, phosphate release, Sf9 membranes on OfABCB2

OfABCB1 = conditions: read-out: Km Values [μM] ± SE / OfABCB1; substrate-stimulated ATPase; difference without / with 500 µM vanadate; 0-800 µM in 2% DMSO; 37 °C
Text: vanadate-sensitive ATPase assay, phosphate release, Sf9 membranes on OfABCB1

Row | SMILES | Km (OfABCB2) [µM] | Km (OfABCB1) [µM]
1 | C[C@H]1O[C@@H](O[C@H]2[C@@H](O)C[C@H](O[C@H]3[C@@H](O)C[C@H](O[C@H]4CC[C@@]5(C)[C@H](CC[C@@H]6[C@@H]5C[C@@H](O)[C@]5(C)[C@@H](C7=CC(=O)OC7)CC[C@]65O)C4)O[C@@H]3C)O[C@@H]2C)C[C@H](O)[C@@H]1O [digoxin] | 9.33 ± 2.43 | 33.7 ± 11.4
2 | C[C@@H]1O[C@@H](O[C@H]2C[C@@H](O)[C@]3(CO)[C@H]4[C@H](O)C[C@]5(C)[C@@H](C6=CC(=O)OC6)CC[C@]5(O)[C@@H]4CC[C@]3(O)C2)[C@H](O)[C@H](O)[C@H]1O [ouabain] | 7.05 ± 2.61 | –
